Assays:
[1] = tested on: SAGPY (Arrowhead (Pygmaea)); test: Preemergence weed control under flooded paddy conditions; assay type: in vivo, Sagittaria pygmaea; conditions: rated 3-4 weeks after treatment
How it was run: (§1)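 Seeds or propagules sown in silt loam kept flooded 1.5-3 cm; compounds in 50/50 acetone/water pipetted into flood water at about 0.0313 to 0.500 kg/ha. Greenhouse; visual 0-9 rating versus untreated control 3-4 weeks after treatment.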

[2] = tested on: ABUTH (Velvetleaf); test: Preemergence herbicidal evaluation; assay type: in vivo, Abutilon theophrasti; conditions: rated 4-5 weeks after treatment; for ABUTH rating: preemergence, 0-9 scale
How it was run: (§2)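 In this greenhouse assay, monocot and dicot seeds are planted in soil and treated prior to emergence with an aqueous acetone spray (about 0.0156-0.500 kg/ha). Plants are assessed visually against control on a 0-9 scale after 4-5 weeks.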

[3] = tested on: SETVI (Foxtail, Green); test: Preemergence herbicidal evaluation; assay type: in vivo, Setaria viridis; conditions: rated 4-5 weeks after treatment; for SETVI rating: preemergence, 0-9 scale
How it was run: as §2

[4] = tested on: CASOB (Sicklepod); test: Preemergence herbicidal evaluation; assay type: in vivo, Cassia obtusifolia; conditions: rated 4-5 weeks after treatment; for CASOB rating: preemergence, 0-9 scale
How it was run: as §2

[5] = tested on: GALAP (Galium); test: Preemergence herbicidal evaluation; assay type: in vivo, Galium aparine; conditions: rated 4-5 weeks after treatment; for GALAP rating: preemergence, 0-9 scale
How it was run: as §2

[6] = tested on: IPOHE (Morningglory, Ivyleaf); test: Postemergence herbicidal evaluation; assay type: in vivo, Ipomoea hederacea; conditions: postemergence
How it was run: (§3)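 Two-week-old seedlings sprayed with compound in 50/50 acetone/water plus 0.5% TWEEN 20, at about 0.0156 to 0.500 kg/ha, nozzle at 40 psi. Kept in greenhouse; rated visually 4-5 weeks after treatment on a 0-9 scale versus control, repeat tests averaged.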

[7] = tested on: ECHORC (Watergrass (Calif.)); test: Postemergence weed control under flooded paddy conditions; assay type: in vivo, Echinochloa oryzoides; conditions: postemergence weeds, rated 3 to 4 weeks after treatment
How it was run: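 Weeds 3 to 5 cm tall and rice seedlings at the 1.5 to 2.5 leaf stage were flooded, with water held 1.5 to 3 cm above the soil. Compounds in 50/50 v/v aqueous/acetone went into the flood water at about 0.0313 to 0.500 kg/ha. Visual 0-9 ratings versus control were made 3 to 4 weeks later.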

[8] = tested on: AMBEL (Ragweed, Common); test: Postemergence herbicidal evaluation; assay type: in vivo, Ambrosia artemisifolia; conditions: postemergence
How it was run: as §3

[9] = tested on: GLXMAW (Soybean, Williams); test: Preemergence herbicidal evaluation; assay type: in vivo, Glycine max, (L.) Merr. cv Williams; conditions: rated 4-5 weeks after treatment; for GLXMAW rating: preemergence, 0-9 scale
How it was run: as §2

[10] = tested on: CYPSE (Flatsedge); test: Preemergence weed control under flooded paddy conditions; assay type: in vivo, Cyperus serotinus; conditions: rated 3-4 weeks after treatment
How it was run: as §1

[11] = tested on: ZEAMX (Corn, Field); test: Postemergence herbicidal evaluation; assay type: in vivo, Zea mays; conditions: postemergence
How it was run: as §3

[12] = tested on: AMBEL (Ragweed, Common); test: Preemergence herbicidal evaluation; assay type: in vivo, Ambrosia artemisifolia; conditions: rated 4-5 weeks after treatment; for AMBEL rating: preemergence, 0-9 scale
How it was run: as §2

[13] = tested on: GLXMAW (Soybean, Williams); test: Postemergence herbicidal evaluation; assay type: in vivo, Glycine max, (L.) Merr. cv Williams; conditions: postemergence
How it was run: as §3

[14] = tested on: ECHCG (Barnyardgrass); test: Preemergence herbicidal evaluation; assay type: in vivo, Echinochloa crus-galli; conditions: rated 4-5 weeks after treatment; for ECHCG rating: preemergence, 0-9 scale
How it was run: as §2

## CC(C)C[C@@H](C(=O)O)N1C(=O)CSC1=Nc1cc(-n2c(=O)cc(C(F)(F)F)n(C)c2=O)c(F)cc1Cl [Compound 71, α-Isobutyl-2-{{2-chloro-5-[3,6-dihydro-3-methyl-2,6-dioxo-4-(trifluoromethyl)-1(2H)-pyrimidinyl]-4-fluorophenyl}imino}-4-oxo-3-thiazolidineacetic acid, L-]
[1]; 0.1250 kg/ha
  SAGPY herbicidal effect rating: 0.0
[1]; 0.2500 kg/ha
  SAGPY herbicidal effect rating: 0.0
[2]; rate 0.0156 kg/ha
  Preemergence herbicidal rating ABUTH: 1.0
[2]; rate 0.0313 kg/ha
  Preemergence herbicidal rating ABUTH: 9.0
[2]; rate 0.0625 kg/ha
  Preemergence herbicidal rating ABUTH: 9.0
[2]; rate 0.1250 kg/ha
  Preemergence herbicidal rating ABUTH: 9.0
[2]; rate 0.2500 kg/ha
  Preemergence herbicidal rating ABUTH: 9.0
[3]; rate 0.0156 kg/ha
  Preemergence herbicidal rating SETVI: 0.0
[3]; rate 0.0313 kg/ha
  Preemergence herbicidal rating SETVI: 0.0
[3]; rate 0.0625 kg/ha
  Preemergence herbicidal rating SETVI: 0.0
[3]; rate 0.1250 kg/ha
  Preemergence herbicidal rating SETVI: 4.0
[3]; rate 0.2500 kg/ha
  Preemergence herbicidal rating SETVI: 9.0
[4]; rate 0.0156 kg/ha
  Preemergence herbicidal rating CASOB: 0.0
[4]; rate 0.0313 kg/ha
  Preemergence herbicidal rating CASOB: 0.0
[4]; rate 0.0625 kg/ha
  Preemergence herbicidal rating CASOB: 0.0
[4]; rate 0.1250 kg/ha
  Preemergence herbicidal rating CASOB: 7.0
[4]; rate 0.2500 kg/ha
  Preemergence herbicidal rating CASOB: 9.0
[5]; rate 0.0156 kg/ha
  Preemergence herbicidal rating GALAP: 0.0
[5]; rate 0.0313 kg/ha
  Preemergence herbicidal rating GALAP: 0.0
[5]; rate 0.0625 kg/ha
  Preemergence herbicidal rating GALAP: 0.0
[5]; rate 0.1250 kg/ha
  Preemergence herbicidal rating GALAP: 9.0
[5]; rate 0.2500 kg/ha
  Preemergence herbicidal rating GALAP: 6.0
[6]; rate 0.0158 kg/ha
  IPOHE herbicidal rating: 9.0
[6]; rate 0.0315 kg/ha
  IPOHE herbicidal rating: 9.0
[6]; rate 0.0630 kg/ha
  IPOHE herbicidal rating: 9.0
[7]; Rate 0.1250 kg/ha
  Herbicidal rating ECHORC: 0.0
[7]; Rate 0.2500 kg/ha
  Herbicidal rating ECHORC: 7.0
[8]; rate 0.0158 kg/ha
  AMBEL herbicidal rating: 9.0
[8]; rate 0.0315 kg/ha
  AMBEL herbicidal rating: 9.0
[8]; rate 0.0630 kg/ha
  AMBEL herbicidal rating: 9.0
[9]; rate 0.0156 kg/ha
  Preemergence herbicidal rating GLXMAW: 1.0
[9]; rate 0.0313 kg/ha
  Preemergence herbicidal rating GLXMAW: 0.0
[9]; rate 0.0625 kg/ha
  Preemergence herbicidal rating GLXMAW: 1.0
[9]; rate 0.1250 kg/ha
  Preemergence herbicidal rating GLXMAW: 3.0
[10]; 0.1250 kg/ha
  CYPSE herbicidal effect rating: 3.0
[10]; 0.2500 kg/ha
  CYPSE herbicidal effect rating: 3.0
[11]; rate 0.0158 kg/ha
  ZEAMX herbicidal rating: 5.0
[11]; rate 0.0315 kg/ha
  ZEAMX herbicidal rating: 5.0
[11]; rate 0.0630 kg/ha
  ZEAMX herbicidal rating: 7.0
[12]; rate 0.0156 kg/ha
  Preemergence herbicidal rating AMBEL: 1.0
[12]; rate 0.0313 kg/ha
  Preemergence herbicidal rating AMBEL: 2.0
[12]; rate 0.0625 kg/ha
  Preemergence herbicidal rating AMBEL: 7.0
[12]; rate 0.1250 kg/ha
  Preemergence herbicidal rating AMBEL: 9.0
[12]; rate 0.2500 kg/ha
  Preemergence herbicidal rating AMBEL: 9.0
[13]; rate 0.0158 kg/ha
  GLXMAW herbicidal rating: 6.5
[13]; rate 0.0315 kg/ha
  GLXMAW herbicidal rating: 7.5
[13]; rate 0.0630 kg/ha
  GLXMAW herbicidal rating: 7.5
[14]; rate 0.0156 kg/ha
  Preemergence herbicidal rating ECHCG: 0.0
[14]; rate 0.0313 kg/ha
  Preemergence herbicidal rating ECHCG: 0.0
[14]; rate 0.0625 kg/ha
  Preemergence herbicidal rating ECHCG: 0.0
[14]; rate 0.1250 kg/ha
  Preemergence herbicidal rating ECHCG: 2.0
[14]; rate 0.2500 kg/ha
  Preemergence herbicidal rating ECHCG: 4.0

## C=CCN1C(=O)C(CC(=O)NC)SC1=Nc1cc(-n2c(=O)cc(C(F)(F)F)n(C)c2=O)c(F)cc1Cl (centres unmarked) [Compound 84, 3-Allyl-2-{{2-chloro-5-[3,6-dihydro-3-methyl-2,6-dioxo-4-(trifluoromethyl)-1(2H)-pyrimidinyl]-4-fluorophenyl}imino}-N-methyl-4-oxo-5-thiazolidineacetamide]
[1]; 0.0313 kg/ha
  SAGPY herbicidal effect rating: 2.0
[1]; 0.0625 kg/ha
  SAGPY herbicidal effect rating: 6.0
[1]; 0.1250 kg/ha
  SAGPY herbicidal effect rating: 7.0
[1]; 0.2500 kg/ha
  SAGPY herbicidal effect rating: 9.0
[2]; 0.0156 kg/ha
  ABUTH rating: 2.0
[2]; 0.0313 kg/ha
  ABUTH rating: 2.0
[2]; 0.0625 kg/ha
  ABUTH rating: 7.0
[2]; 0.1250 kg/ha
  ABUTH rating: 9.0
[2]; 0.2500 kg/ha
  ABUTH rating: 9.0
[2]; 0.5000 kg/ha
  ABUTH rating: 9.0
[3]; 0.0156 kg/ha
  SETVI rating: 0.0
[3]; 0.0313 kg/ha
  SETVI rating: 0.0
[3]; 0.0625 kg/ha
  SETVI rating: 0.0
[3]; 0.1250 kg/ha
  SETVI rating: 3.0
[3]; 0.2500 kg/ha
  SETVI rating: 9.0
[3]; 0.5000 kg/ha
  SETVI rating: 9.0
[4]; 0.0156 kg/ha
  CASOB rating: 0.0
[4]; 0.0313 kg/ha
  CASOB rating: 0.0
[4]; 0.0625 kg/ha
  CASOB rating: 0.0
[4]; 0.1250 kg/ha
  CASOB rating: 0.0
[4]; 0.2500 kg/ha
  CASOB rating: 0.0
[4]; 0.5000 kg/ha
  CASOB rating: 9.0
[5]; 0.0156 kg/ha
  GALAP rating: 0.0
[5]; 0.0313 kg/ha
  GALAP rating: 0.0
[5]; 0.0625 kg/ha
  GALAP rating: 0.0
[5]; 0.1250 kg/ha
  GALAP rating: 0.0
[5]; 0.2500 kg/ha
  GALAP rating: 5.0
[5]; 0.5000 kg/ha
  GALAP rating: 5.0
[6]; rate 0.0156 kg/ha
  IPOHE herbicidal rating: 9.0
[6]; rate 0.0313 kg/ha
  IPOHE herbicidal rating: 9.0
[6]; rate 0.0625 kg/ha
  IPOHE herbicidal rating: 9.0
[6]; rate 0.1250 kg/ha
  IPOHE herbicidal rating: 9.0
[7]; Rate 0.0313 kg/ha
  Herbicidal rating ECHORC: 4.0
[7]; Rate 0.0625 kg/ha
  Herbicidal rating ECHORC: 5.0
[7]; Rate 0.1250 kg/ha
  Herbicidal rating ECHORC: 7.0
[7]; Rate 0.2500 kg/ha
  Herbicidal rating ECHORC: 9.0
[8]; rate 0.0156 kg/ha
  AMBEL herbicidal rating: 4.0
[8]; rate 0.0313 kg/ha
  AMBEL herbicidal rating: 9.0
[8]; rate 0.0625 kg/ha
  AMBEL herbicidal rating: 9.0
[8]; rate 0.1250 kg/ha
  AMBEL herbicidal rating: 9.0
[9]; 0.0156 kg/ha
  GLXMAW rating: 0.0
[9]; 0.0313 kg/ha
  GLXMAW rating: 0.0
[9]; 0.0625 kg/ha
  GLXMAW rating: 0.0
[9]; 0.1250 kg/ha
  GLXMAW rating: 3.0
[9]; 0.2500 kg/ha
  GLXMAW rating: 5.0
[9]; 0.5000 kg/ha
  GLXMAW rating: 7.0
[10]; 0.0313 kg/ha
  CYPSE herbicidal effect rating: 0.0
[10]; 0.0625 kg/ha
  CYPSE herbicidal effect rating: 3.0
[10]; 0.1250 kg/ha
  CYPSE herbicidal effect rating: 9.0
[10]; 0.2500 kg/ha
  CYPSE herbicidal effect rating: 9.0
[11]; rate 0.0156 kg/ha
  ZEAMX herbicidal rating: 4.0
[11]; rate 0.0313 kg/ha
  ZEAMX herbicidal rating: 4.0
[11]; rate 0.0625 kg/ha
  ZEAMX herbicidal rating: 4.5
[11]; rate 0.1250 kg/ha
  ZEAMX herbicidal rating: 5.0
[12]; 0.0156 kg/ha
  AMBEL rating: 0.0
[12]; 0.0313 kg/ha
  AMBEL rating: 3.0
[12]; 0.0625 kg/ha
  AMBEL rating: 4.0
[12]; 0.1250 kg/ha
  AMBEL rating: 9.0
[12]; 0.2500 kg/ha
  AMBEL rating: 9.0
[12]; 0.5000 kg/ha
  AMBEL rating: 9.0
[13]; rate 0.0156 kg/ha
  GLXMAW herbicidal rating: 4.0
[13]; rate 0.0313 kg/ha
  GLXMAW herbicidal rating: 4.5
[13]; rate 0.0625 kg/ha
  GLXMAW herbicidal rating: 4.5
[13]; rate 0.1250 kg/ha
  GLXMAW herbicidal rating: 8.5
[14]; 0.0156 kg/ha
  ECHCG rating: 0.0
[14]; 0.0313 kg/ha
  ECHCG rating: 0.0
[14]; 0.0625 kg/ha
  ECHCG rating: 0.0
[14]; 0.1250 kg/ha
  ECHCG rating: 0.0
[14]; 0.2500 kg/ha
  ECHCG rating: 2.0
[14]; 0.5000 kg/ha
  ECHCG rating: 9.0

— patent publication US20020137929A1, “1 - (3-heterocyclylphenyl) isothiourea, -isourea, -guanidine and -amidine herbicidal agents” (Intellectual Property Department, BASF Aktiengesellschaft, priority 1998, published 2002)
